This is an account of results in patent US12528783B2, “PqsR inverse agonists” (priority 2020, dated 2026).

Bounds are passed on as bounds.

A short description of data set [1]: Kinetic Turbidimetric Aqueous Solubility. It counts as physicochemical. The settings on record: aqueous buffer, kinetic from dmso stock, PBS buffer, room temperature. As to the method:
Kinetic Turbidimetric Aqueous Solubility at room temperature for 5 min. Test compound was diluted in PBS buffer to give a range of concentrations (typically 0.4, 2, 4, 20, 40, 100, and 200 μM, final DMSO concentration 2%) and incubated at room temperature for 5 min. Absorbance was measured at a wavelength of 620 nm and the solubility was estimated from the concentration of test compound that produces an increase in absorbance above the vehicle control (i.e., […]). Data was analyzed by fitting a four parameter sigmoidal function to the measured and normalized absorbances and AUC calculation providing access to Log S (decadic logarithm of the solubility).

In data set [2] the test system is P. aeruginosa pyocyanin production. Description: Pyocyanin assay. In kind it is cell-based. As to conditions: Pseudomonas aeruginosa, PA14, 16 h, read-out: IC50-value towards pyocyanin production, PA14 in PPGAS medium, 16 h. On the procedure: Inhibition of P. aeruginosa pyocyanin production by compounds was determined photometrically as described before. In short, an overnight culture of PA14 in PPGAS medium was washed, diluted in medium to a start OD600 of 0.02, and incubated for 16 h (37° C., 200 rpm, relative humidity 75%) in the presence of test compounds. Then, cultures were extracted with chloroform and re-extracted with 0.2 M HCl. Protonated red colored pyocyanin was determined by measuring OD520 and normalizing to OD600.

For another data set, the target named is T1, PqsR (Pseudomonas aeruginosa, UniProt Q9I4X0).
T1 construct: expressed in transfected cells; host or cells: Escherichia coli DH5a carrying pEAL08-2
Description: PqsR inverse agonistic activity, reporter gene assay in E. coli. It counts as cell-based. On the procedure:
Inhibition of pqsR-dependent gene expression of test compounds was determined in an E. coli based-galactosidase reporter gene assay. Escherichia coli DH5a was transfected with pEAL08-2 plasmid encoding pqsR under control of promoter tac and β-galactosidase reporter gene lacZ under control of promoter pqsA. Antagonistic effects of compounds were evaluated in the presence of/in competition to 50 nM PQS. A positive control was used to ensure the reliability of individual assays. First, PQS was diluted in methanol and added to the wells of a glass coated 96-deep-well plate, and the solvent was evaporated. Then, compounds were added in 5 μL DMSO to final concentrations of 0.001-10 μM. Overnight cultures of E. coli DH5a×pEAL08-2 were diluted 1:100 in LB medium with ampicillin (50 μg/ml) and incubated at 37° C. with shaking until it reached an OD600 of 0.2. Finally, 995 μL of culture was added to each well and the β-galactosidase activity was determined by ortho-nitrophenyl-β-galactoside conversion in permeabilized cells after a 2.5 h incubation period (37° C., 180 rpm). OD600, OD420, and OD550 were measured using POLARstar Omega (BMG Labtech, Ortenberg, Germany), and the activity was expressed as ratio of the slope of B-galactosidase activity between basal control (no PQS) and solvent control. IC50 values of antagonists were determined by variation of the concentration of the test compounds.
In general terms: A reporter such as luciferase makes a cellular process visible.

Data set [3] in a line: Metabolic stability in mouse liver microsomes (MLM). In kind it is in vitro ADME. As to conditions: 1 μM compound, 0.5 mg/mL MLM, 1 mM NADPH, 37° C., read-out: half-life (t1/2) towards MLM. On the procedure: For the evaluation of phase I metabolic stability, the compound (1 μM) was incubated with 0.5 mg/mL MLM (Corning) and 1 mM NADPH at 37° C. for 0, 5, 10, 15 and 30 min. The metabolic stability of Verapamil, Diphenhydramine and Benzydamine (1 μM each) were determined in parallel to confirm the enzymatic activity of the MLM. The incubation was stopped by addition of 2 volumes of acetonitrile containing internal standard (1 μM Leucine Enkephaline). Samples were centrifuged (15 min, 3,500 rpm). Concentration of the remaining test compound at the different time points was analyzed by HPLC-MS/MS and used to determine half-life (t1/2).
Background: Microsomes from liver hold many membrane-bound enzymes, among them those of drug oxidation.

Data set [4] concerns virulence factor pyocyanin production. As to conditions: in cellulo; read-out: inhibition of virulence factor pyocyanin production IC50; cited from earlier work.
Data set [5] concerns signal molecule production (HHQ, PQS). The settings on record: at 15 μM; cited from earlier work.
In data set [6] the test system is production of signal molecules HHQ and PQS. The settings on record: QS inhibitors targeting PqsA; read-out: IC50, reduction of production of signal molecules HHQ and PQS; cited from earlier work.

T1 sequence (Q9I4X0 whole entry): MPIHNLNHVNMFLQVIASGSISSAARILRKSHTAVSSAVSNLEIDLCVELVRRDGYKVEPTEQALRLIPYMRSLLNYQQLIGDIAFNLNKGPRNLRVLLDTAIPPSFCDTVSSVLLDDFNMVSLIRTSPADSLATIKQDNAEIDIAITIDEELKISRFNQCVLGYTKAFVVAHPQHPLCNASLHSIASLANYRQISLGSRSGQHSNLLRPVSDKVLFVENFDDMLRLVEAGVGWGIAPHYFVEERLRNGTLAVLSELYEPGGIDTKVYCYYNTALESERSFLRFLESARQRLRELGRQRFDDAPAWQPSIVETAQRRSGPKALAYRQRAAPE

By solubility is commonly meant the concentration that dissolves in the medium under given conditions. A lower solubility goes with a poorly soluble substance. By IC50 is commonly meant the concentration at which inhibition is half-maximal. Compound `FC(F)c1cccc(Nc2ccc3[nH]c(CSc4ccnc(C(F)(F)F)c4)nc3c2)c1` [Compound 37] displayed a solubility at 5 min in data set [1] above 10 µM. The figures for the IC50 (in data set [2]; on PqsR) were 0.101 to 0.2 µM and at most 0.05 µM, respectively. In addition, in data set [3], the half-life at 1 μM was above 1 h.
In data set [1], `FC(F)(F)c1cc(SCc2nc3cc(Cc4ccccc4)ccc3[nH]2)ccn1` [Compound 12] registered a solubility at 5 min above 25 µM. Besides, the figures for the IC50 (in data set [2]; on PqsR) were 0.201 to 0.5 µM and at most 0.05 µM, respectively.
`O=[N+]([O-])c1cc(-c2ncc(CNc3cc(Cl)nc(C(F)(F)F)c3)cn2)ccc1Cl` [Compound 08] gave a solubility at 5 min in data set [1] above 10 µM. For the same compound, the IC50 in data set [2] was 0.101 to 0.2 µM. Also, in data set [3], the half-life at 1 μM is above 1 h.
For `O=[N+]([O-])c1cccc(-c2ncc(CNc3cc(Cl)nc(C(F)(F)F)c3)cn2)c1` [Compound 09] the same measures were above 10 µM, 0.201 to 0.5 µM and 0.517 to 1 h.
For `Fc1cc(Nc2ccccc2)cc2nc(CSc3ccnc(C(F)(F)F)c3)[nH]c12` [Compound 56], the solubility at 5 min in data set [1] is above 25 µM. The IC50 in data set [2] was at most 0.1 µM; at PqsR, at most 0.05 µM.
The corresponding values for `Fc1cccc(Nc2ccc3[nH]c(CSc4ccnc(C(F)(F)F)c4)nc3c2)c1F` [Compound 46] are above 10 µM, 0.201 to 0.5 µM and 0.051 to 0.25 µM.
`NC(=O)c1cccc(Nc2ccc3[nH]c(CSc4ccnc(C(F)(F)F)c4)nc3c2)c1` [Compound 36] registered a solubility at 5 min in data set [1] above 50 µM. The compound further had an IC50 at PqsR of 0.251 to 1 µM. In addition, in data set [3], the half-life at 1 μM lay in the range of 0.517 to 1 h.
`Fc1ccc(Nc2ccc3[nH]c(CSc4ccnc(C(F)(F)F)c4)nc3c2)c(F)c1` [Compound 45] came in with a solubility at 5 min in data set [1] above 25 µM. The IC50 in data set [2] is 0.101 to 0.2 µM; on PqsR, at most 0.05 µM. The half-life at 1 μM in data set [3] is above 1 h.
`FC(F)(F)c1cc(NCc2cn(-c3cccc(Nc4ccccc4)c3)nn2)ccn1` [Compound 02] came in with a solubility at 5 min in data set [1] above 10 µM. In addition, the results for the IC50 (in data set [2]; at PqsR) were at most 0.1 µM and at most 0.05 µM, respectively.
Consider `CCCCCCCc1[nH]c2ccc([N+](=O)[O-])cc2c(=O)c1C(N)=O` [2-heptyl-6-nitro-4-oxo-1,4-dihydroquinoline-3-carboxamide], for which the IC50 in data set [4] was 2 µM. In data set [5], the “reduction of HHQ production” value is 54% and the “reduction of PQS production” value was 37%.
In data set [1], `Fc1cccc(F)c1Nc1ccc2[nH]c(CSc3ccnc(C(F)(F)F)c3)nc2c1` [Compound 42] had a solubility at 5 min above 25 µM. Further, the IC50 in data set [2] is 0.101 to 0.2 µM; at PqsR, at most 0.05 µM.
On to `Nc1cccc(F)c1C(=O)O` [Compound 6FABA], for which the IC50 in data set [6] is around 100 µM.
